Values of other authors as cited in patent US5426034A, “Process for the production and use of a stable 6-phosphogluconolactonase” (Boehringer Mannheim GmbH, priority 1990, dated 1995).

System: 6-phosphogluconolactonase (phosphogluconolactonase) from Zymomonas mobilis
Details: Zymomonas enzyme, literature value (Scopes 1985); substrate specificity

O=C1O[C@H](COP(=O)(O)O)[C@@H](O)[C@H](O)[C@H]1O [6-phosphogluconolactone]
Km: 20 to 30 µM
